From patent publication US12043599B2, “Herbicidal compounds” (SYNGENTA PARTICIPATIONS AG, priority 2018, dated 2024)

Tests used:
Format in all cases: in vivo
Settings in all cases: 250 g/h, evaluated after 13 days
[1] = system: Echinochloa crus-galli (ECHCG); experiment: Post-emergence herbicidal glasshouse test, percentage damage
Description: (§1) Seeds of a variety of test species are sown in standard soil in pots (Lolium perenne (LOLPE), Setaria faberi (SETFA), Alopecurus myosuroides (ALOMY), Echinochloa crus-galli (ECHCG), Avena fatua (AVEFA)). After cultivation for one day (pre-emergence) or after 8 days cultivation (post-emergence) under controlled conditions in a glasshouse (at 24/16° C., day/night; 14 hours light; 65% humidity), the plants are sprayed with an aqueous spray solution derived from the formulation of the technical active ingredient in acetone/water (50:50) solution containing 0.5% Tween 20 (polyoxyethelyene sorbitan monolaurate, CAS RN 9005-64-5). Compounds are applied at […]. The test plants are then grown in a glasshouse under controlled conditions in a glasshouse (at 24/16° C., day/night; 14 hours light; 65% humidity) and watered twice daily. After 13 days for pre and post-emergence, the test is evaluated for the percentage damage caused to the plant. The biological activities are shown in the following table on a five point scale (5=80-100%; 4=60-79%; 3=40-59%; 2=20-39%; 1=0-19%).

[2] = system: Avena fatua (AVEFA); experiment: as above
Description: as §1

[3] = system: Lolium perenne (LOLPE); experiment: as above
Description: as §1

[4] = system: Setaria faberi (SETFA); experiment: as above
Description: as §1
Using procedures outlines above, wheat and barley crop plants and a weed species (SETFA) are treated post-emergence with compound A11 of the present invention or comparator compound C1 (Compound A-38 from WO2014/096289) at the application rates indicated. The compounds were also applied to wheat in conjunction with the safener compound cloquintocet-mexyl (CQC) at 50 g/ha.

[5] = system: Echinochloa crus-galli (ECHCG); experiment: Pre-emergence herbicidal glasshouse test, percentage damage
Description: as §1

[6] = system: Avena fatua (AVEFA); experiment: as above
Description: as §1

[7] = system: Lolium perenne (LOLPE); experiment: as above
Description: as §1

[8] = system: Setaria faberi (SETFA); experiment: as above
Description: as §1

SMILES	ECHCG POST percentage damage (five point scale) [1]	AVEFA POST percentage damage (five point scale) [2]	LOLPE POST percentage damage (five point scale) [3]	SETFA POST percentage damage (five point scale) [4]	ECHCG PRE percentage damage (five point scale) [5]	AVEFA PRE percentage damage (five point scale) [6]	LOLPE PRE percentage damage (five point scale) [7]	SETFA PRE percentage damage (five point scale) [8]
CC#Cc1cc(C)c(C2C(=O)CC3(CCN(C(=O)CCOC)CC3)CC2=O)c(C)c1 [Compound A124]	5 (5=80-100%)	5 (5=80-100%)	5 (5=80-100%)	5 (5=80-100%)	5 (5=80-100%)	5 (5=80-100%)	5 (5=80-100%)	5 (5=80-100%)
CC#Cc1cc(C)c(C2C(=O)CC3(CCN(C(=O)c4cnc(C#N)s4)CC3)CC2=O)c(C)c1 [Compound A106]	3 (3=40-59%)	5 (5=80-100%)	3 (3=40-59%)	5 (5=80-100%)	4 (4=60-79%)	2 (2=20-39%)	3 (3=40-59%)	4 (4=60-79%)
CC#Cc1cc(C)c(C2C(=O)CC3(CCN(C(=O)c4cnco4)CC3)CC2=O)c(C)c1 [Compound A116]	5 (5=80-100%)	5 (5=80-100%)	5 (5=80-100%)	5 (5=80-100%)	5 (5=80-100%)	5 (5=80-100%)	5 (5=80-100%)	5 (5=80-100%)
CC#Cc1cc(C)c(C2C(=O)CC3(CCN(C(=O)C4CCCO4)CC3)CC2=O)c(C)c1 (centres unmarked) [Compound A139]	5 (5=80-100%)	5 (5=80-100%)	5 (5=80-100%)	5 (5=80-100%)	5 (5=80-100%)	5 (5=80-100%)	5 (5=80-100%)	5 (5=80-100%)
CC#Cc1cc(C)c(C2C(=O)CC3(CCN(C(=O)c4cnc(C)cn4)CC3)CC2=O)c(C)c1 [Compound A127]	5 (5=80-100%)	5 (5=80-100%)	5 (5=80-100%)	5 (5=80-100%)	5 (5=80-100%)	5 (5=80-100%)	5 (5=80-100%)	5 (5=80-100%)
CC#Cc1cc(C)c(C2C(=O)CC3(CCN(C(=O)NC(=O)C(C)C)CC3)CC2=O)c(C)c1 [Compound A142]	5 (5=80-100%)	5 (5=80-100%)	5 (5=80-100%)	5 (5=80-100%)	5 (5=80-100%)	4 (4=60-79%)	5 (5=80-100%)	5 (5=80-100%)
CC#Cc1cc(C)c(C2C(=O)CC3(CCN(C(=O)c4cncs4)CC3)CC2=O)c(C)c1 [Compound A118]	5 (5=80-100%)	5 (5=80-100%)	5 (5=80-100%)	5 (5=80-100%)	5 (5=80-100%)	5 (5=80-100%)	5 (5=80-100%)	5 (5=80-100%)
CC#Cc1cc(C)c(C2C(=O)CC3(CCN(C(=O)c4csnn4)CC3)CC2=O)c(C)c1 [Compound A135]	5 (5=80-100%)	5 (5=80-100%)	5 (5=80-100%)	5 (5=80-100%)	5 (5=80-100%)	5 (5=80-100%)	5 (5=80-100%)	5 (5=80-100%)
CC#Cc1cc(C)c(C2C(=O)CC3(CCN(C(=O)c4nn(C)nc4C)CC3)CC2=O)c(C)c1 [Compound A134]	5 (5=80-100%)	5 (5=80-100%)	5 (5=80-100%)	5 (5=80-100%)	5 (5=80-100%)	5 (5=80-100%)	5 (5=80-100%)	5 (5=80-100%)
CC#Cc1cc(C)c(C2C(=O)CC3(CCN(C(=O)c4ccnc(F)c4)CC3)CC2=O)c(C)c1 [Compound A125]	5 (5=80-100%)	5 (5=80-100%)	5 (5=80-100%)	5 (5=80-100%)	5 (5=80-100%)	5 (5=80-100%)	5 (5=80-100%)	5 (5=80-100%)
CC#Cc1cc(C)c(C2C(=O)CC3(CCN(C(=O)NC(=O)CC)CC3)CC2=O)c(C)c1 [Compound A108]	5 (5=80-100%)	5 (5=80-100%)	5 (5=80-100%)	5 (5=80-100%)	5 (5=80-100%)	5 (5=80-100%)	5 (5=80-100%)	5 (5=80-100%)
CC#Cc1cc(C)c(C2C(=O)CC3(CCN(C(=O)c4cnccc4C)CC3)CC2=O)c(C)c1 [Compound A115]	5 (5=80-100%)	5 (5=80-100%)	5 (5=80-100%)	5 (5=80-100%)	5 (5=80-100%)	3 (3=40-59%)	5 (5=80-100%)	5 (5=80-100%)
CC#Cc1cc(C)c(C2C(=O)CC3(CCN(C(=O)c4cccc(OC)n4)CC3)CC2=O)c(C)c1 [Compound A110]	5 (5=80-100%)	5 (5=80-100%)	5 (5=80-100%)	5 (5=80-100%)	5 (5=80-100%)	5 (5=80-100%)	5 (5=80-100%)	5 (5=80-100%)
CC#Cc1cc(C)c(C2=C(OC(=O)OC)CC3(CCN(C(=O)c4ccncc4)CC3)CC2=O)c(C)c1 [Compound P45]	5 (5=80-100%)	5 (5=80-100%)	5 (5=80-100%)	5 (5=80-100%)	5 (5=80-100%)	5 (5=80-100%)	5 (5=80-100%)	5 (5=80-100%)
CC#Cc1cc(C)c(C2C(=O)CC3(CCN(C(=O)C4CCOC4)CC3)CC2=O)c(C)c1 (centres unmarked) [Compound A129]	5 (5=80-100%)	5 (5=80-100%)	5 (5=80-100%)	5 (5=80-100%)	5 (5=80-100%)	5 (5=80-100%)	5 (5=80-100%)	5 (5=80-100%)
CC#Cc1cc(C)c(C2C(=O)CC3(CCN(C(=O)c4ccnn4C)CC3)CC2=O)c(C)c1 [Compound A136]	5 (5=80-100%)	5 (5=80-100%)	5 (5=80-100%)	5 (5=80-100%)	5 (5=80-100%)	5 (5=80-100%)	5 (5=80-100%)	5 (5=80-100%)
